Source: patent publication US20220273673A1, “BONE-BINDING COMPOUNDS” (BRIGHAM YOUNG UNIVERSITY, priority 2019, published 2022)

Tests used:
[1] = tested on: J774.2 monocyte macrophage lineage cells; assay: In vitro protein prenylation assay (mevalonate pathway); assay type: cell-based; conditions: 25 μM or equimolar concentration; 24 hours
Procedure: The assay used was as described by Ali N et al., Small GTPases 6(4):202-11 (2015). Briefly, this involved incubation of cells with the compounds for 24 hours at increasing doses of drugs and then an in vitro prenylation assay being performed on protein extracts. Immunoblotting (western blotting) was carried out to identify an exemplar unprenylated protein, with a band indicating drug activity affecting the mevalonate pathway.

[2] = Hydroxyapatite (HA) binding assay, HPLC of supernatant; conditions: after 60 minutes of incubation with HA
Procedure: To analyze the reduction in peak height due to HA binding, 100 μL of supernatant was withdrawn at predetermined time points and analyzed by HPLC.

MC3T3-E1 cells = assay: Alkaline phosphatase activity assay (p-nitrophenyl phosphate) in osteoblasts; assay type: cell-based; conditions: 5 μM; osteogenic media; without rhBMP-2
Procedure: A p-nitrophenyl phosphate assay was performed for alkaline phosphatase activity (Sigma-Aldrich) and normalized to day-3 cells grown in osteogenic media and α-MEM media. Assays were performed in triplicate with two independent repeats.

cultured cells = conditions: Schindeler et al. 2015; cited from earlier work

| Structure (SMILES) | Effect on protein prenylation (unprenylated protein band, western blot) [1] | Reduction in peak height on HA incubation (in words) [2] | Alkaline phosphatase expression / osteogenic potential, compound alone (MC3T3-E1 cells) | Pro-osteogenic activity, potentiation of rhBMP-2 (cultured cells) |
| --- | --- | --- | --- | --- |
| NCCCC(O)(P(=O)(O)O)P(=O)(O)O [alendronate] | potent effect on protein prenylation | – | – | – |
| CCCCCN(CCCCC)CCC[C@@H](C)[C@H]1CC[C@H]2[C@@H]3[C@H](OCCCN)C[C@@H]4C[C@H](OCCCN)CC[C@]4(C)[C@H]3CC(OCCCN)[C@]12C (some centres unmarked) [CSA-90] | did not induce a noticeable or comparable protein prenylation effect | no, or very low, reduction in peak height | increased alkaline phosphatase expression | pro-osteogenic activity |
